Measured values from the supplement of paper PMC10307832.

Tests used:
Test in all cases: relative viability (nuclei count vs DMSO), 5 days (fraction); higher = more cells survive
[1] = compound: CC[C@H](Nc1ncnc2[nH]cnc12)c1nc2cccc(F)c2c(=O)n1-c1ccccc1 [Idelalisib] + CS(=O)(=O)CCNCc1ccc(-c2ccc3ncnc(Nc4ccc(OCc5cccc(F)c5)c(Cl)c4)c3c2)o1 [Lapatinib] (partner 2 µM)
Outline: (§1)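 Lung cancer cell lines were seeded in 1536-well plates and dosed by pin tool the next day, with either a single drug or a fixed anchor-drug dose combined with five library-drug doses (not always all listed) spaced in √10 steps. Five days later, one step fixed the cells and stained their nuclei (final 0.05% Triton X-100, 1% formaldehyde, 1 ug/ml Hoechst), and nuclei were counted on 4× images. Relative viability is the nuclei count in treated wells divided by the count in vehicle wells, and each value is the median of duplicate plates.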

[2] = compound: CC[C@H](Nc1ncnc2[nH]cnc12)c1nc2cccc(F)c2c(=O)n1-c1ccccc1 [Idelalisib] + NC(=O)Nc1cc(-c2cccc(F)c2)sc1C(=O)N[C@H]1CCCNC1 [AZD7762] (partner 0.2 µM)
Outline: as §1

[3] = compound: CC[C@H](Nc1ncnc2[nH]cnc12)c1nc2cccc(F)c2c(=O)n1-c1ccccc1 [Idelalisib] + Nc1ncn([C@H]2C[C@H](O)[C@@H](CO)O2)c(=O)n1 [Decitabine] (partner 2 µM)
Outline: as §1

[4] = compound: Nc1nc2[nH]cc(CCc3ccc(C(=O)N[C@@H](CCC(=O)O)C(=O)O)cc3)c2c(=O)[nH]1 [Pemetrexed] + CC1(C)CCC(c2ccc(Cl)cc2)=C(CN2CCN(c3ccc(C(=O)NS(=O)(=O)c4ccc(N[C@H](CCN5CCOCC5)CSc5ccccc5)c(S(=O)(=O)C(F)(F)F)c4)cc3)CC2)C1 [Navitoclax] (partner 0.5 µM)
Outline: as §1

Cell Line	relative viability ([1]; first compound 0.04 µM)	relative viability ([1]; first compound 0.1265 µM)	relative viability ([1]; first compound 0.4 µM)	relative viability ([1]; first compound 1.265 µM)	relative viability ([1]; first compound 4 µM)	relative viability ([2]; first compound 0.04 µM)	relative viability ([2]; first compound 0.1265 µM)	relative viability ([2]; first compound 0.4 µM)	relative viability ([2]; first compound 1.265 µM)	relative viability ([2]; first compound 4 µM)	relative viability ([3]; first compound 0.04 µM)	relative viability ([3]; first compound 0.1265 µM)	relative viability ([3]; first compound 0.4 µM)	relative viability ([3]; first compound 1.265 µM)	relative viability ([3]; first compound 4 µM)	relative viability ([4]; first compound 0.002 µM)	relative viability ([4]; first compound 0.006325 µM)	relative viability ([4]; first compound 0.02 µM)	relative viability ([4]; first compound 0.06325 µM)	relative viability ([4]; first compound 0.2 µM)
RERF-LC-KJ	0.763	0.872	0.814	0.83	0.789	1.05	0.947	0.924	1.06	0.783	0.757	0.739	0.692	0.573	0.521	0.952	0.722	1.31	1.13	0.741
LU99A	0.923	0.912	0.862	1.14	1.04	0.335	0.422	0.294	0.209	0.425	0.876	0.843	0.777	1.02	0.914	0.73	0.75	0.774	0.87	0.748
NCI-H650	1.17	1.07	0.944	0.924	0.877	1.48	1.04	0.79	0.378	1.08	0.345	0.324	0.344	0.348	0.28					
NCI-H2347	0.942	0.917	0.84	1.01	0.969	0.699	0.925	0.69	0.466	0.478	0.612	0.589	0.752	0.621	0.512	0.659	0.805	0.776	0.619	0.391
HARA	0.891	0.982	0.651	0.844	0.656	0.309	0.301		0.169	0.392	0.642	0.62		0.548	0.586	1	1.1	1.17	1.08	0.381
NCI-H2228	1.21	1.14	0.875	1.23	1.03											0.739	0.87	0.964	0.696	0.368
EKVX	0.21	0.234	0.184	0.201	0.186	0.706	0.698	0.596	0.558	0.64	0.323	0.341	0.334	0.294	0.316	0.913	0.904	0.961	0.928	0.627
HCC-827	0.225	0.191	0.176	0.178	0.157	0.216	0.212	0.31	0.153	0.199	0.379	0.246	0.347	0.331	0.286	0.926	0.964	1.13	1.02	0.908
NCI-H1755	1.11	0.999	0.966	1.06	0.97	0.386	0.437	0.376	0.31	0.381	0.724	0.637	0.729	0.7	0.803	0.94	0.918	1.03	0.992	0.898
